{"source": "patent US10981858B2", "about": "“Dendrimer and formulations thereof” (Priostar Pty Ltd, priority 2015, dated 2021)", "assay_type_in_all_cases": "physicochemical", "key": {"[1]": {"test": "Tebuconazole 600 SC wetting study in hard water", "conditions": "one drop Tebuconazole 600 SC, dendrimer 0.7%, in 342 ppm hard water at 30° C.", "procedure": "(§1) Formulations were prepared by mixing water, surfactant, dispersing agent, wetting agent and antifoam together then gradually adding active. High shear mix for 20-30 minutes to disperse formulation ingredients in water before adding the active and mixing until homogeneous. The mixture was milled on a Dyno bead mill (1 m/s) with 0.4-0.6 mm beads at max. 40° C. until particle size was <4 um. Dendrimer compound (in DEG) was added and stirred for 20 minutes. Thickener and antimicrobial was then added and stirred for 20 minutes. Formulations were deaerated by sonication.\nWetting studies were conducted by placing one drop of Tebuconazole 600 SC formulation in 342 ppm hard water at 30° C. and recording the time when all the formulation particles were wet and dispersed in water."}, "[2]": {"test": "2,4-D/dendrimer hard water testing (clarity, sedimentation)", "conditions": "30° C.; for Appearance at Addition / Appearance/Sedimentation After 24 Hrs.: 2,4-D Amine in 342 ppm hard water; for Appearance of 2,4-D solutions in hard water: all concentrations tested (from 1.4 to 10%), 342 ppm hard water, 24 hours", "procedure": "342 ppm hard water was prepared as per CIPAC method MT18. The hard water was heated to 30° C. […]"}, "[3]": {"test": "Additional tebuconazole formulations: suspension stability and viscosity", "conditions": "additional tebuconazole formulation, 0.8% additive", "excerpt": "Additional formulations were developed, and formulation characteristics were studied for suspension stability, and viscosity."}, "[4]": {"test": "Solubilization of Methylated seed oil (MSO) in aqueous LA-9 solution", "conditions": "50 g, until hazy", "procedure": "10% aqueous solution of Ethoxylated Lauryl alcohol-9 mole (water soluble surfactant) was prepared in Deionized water (5 g in 45 ml). Dendrimer compounds 1 and 4 were prepared 70:30 w/w in Diethylene glycol (DEG). The 10% Ethoxylated Lauryl alcohol-9 M (LA-9) solution was combined with dendrimer DEG solution at 80:20 and 60:40 w/w (total weight of 50 g).\nMethylated seed oil (MSO) (STEPOSOL-ROE-W, canola oil methyl ester, Stepan) was added dropwise under stirring to the 10% LA-9 solution (with or without dendimers), until the solution became hazy. Weight of MSO added was recorded."}, "[5]": {"test": "2,4-D/dendrimer formulation stability study (crystallisation at 0° C.)", "conditions": "for Crystallisation After 7 Days at 0° C. With Seeding: 2,4-D Amine 625 g/l seeded with 2,4-D Amine salt; for Crystallisation After 7 Days at 0° C.: without seeding", "procedure": "20 ml of 2,4-D Amine(2,4-D 625 g/l market sample, Rygel, Adama Australia) was transferred to 25 ml clear vials and dendrimer added (with or without 30% Dithethylene Glycol). Caps were tightened to ensure no moisture entered the vials. Formulations were placed in a freezer at 0° C. […] In a related experiment, formulations were prepared with seeding with 2,4-D Amine salt (Shanghai Biochemical Sci. Ltd., purity 98 in order to hasten rate of crystallisation. The results are provided in Table 2."}, "[6]": {"test": "Cloud point studies", "conditions": "1 gm. dendrimer solution (70:30 w/w dendrimer:Diethylene Glycol) in 99 gm. of 10% NaOH solution", "procedure": "1 gm. of dendrimer solution (70:30 w/w dendrimer [Compound 1 or Compound 4]:Diethylene Glycol) was dissolved in 99 gm. of 10% NaOH solution in Deionized water and heated until hazy. Temperature of the solution was measured using calibrated thermometer."}, "[7]": {"test": "Dynamic viscosity of aqueous dendrimer solution (Brookfield)", "conditions": "aqueous solution 7% dendrimer and 3% DEG, ambient temperature, spindle no. 63 at 50 rpm", "procedure": "50 g aqueous solution of dendrimer (7% dendrimer and 3% DEG) was prepared in deionized water in a beaker, and subjected to dynamic viscosity measurement using Brookfield viscometer at ambient temperature. Viscosity studies were conducted using spindle no. 63 at 50 rpm. It was observed that viscosity of Compound-1 solution was 1.8 cps and Compound-4 solution was 0.6 cps."}, "[8]": {"test": "Solubilization of water insoluble surfactant Ethoxylated Lauryl alcohol-3 M in LA-9 solution", "conditions": "50 g, until hazy", "procedure": "5% w/w aqueous solution of Ethoxylated Lauryl alcohol-9 mole (water soluble surfactant) was prepared in Deionized water (2.5 g in 47.5 ml). Dendrimer compounds 1 and 4 were diluted 70:30 w/w in Diethylene glycol. The 5% Ethoxylated Lauryl alcohol-9 M (LA-9) solution was combined with dendrimer DEG solution at 90:10, 80:20 and 70:30 w/w (total weight 50 g).\nEthoxylated lauryl alcohol-3 mole (water insoluble surfactant) was added dropwise, while stirring, to the 50 g LA-9 solution (with or without dendrimer), until it became hazy. The weight of Ethoxylated lauryl alcohol-3 M added was recorded."}, "[9]": {"test": "Water value of dendrimers with solvent (Solvesso 200)", "conditions": "50 g aqueous solution, 7% dendrimer and 3% DEG; until hazy", "procedure": "50 g Aqueous solution of Dendrimer were prepared containing 7% dendrimer and 3% Diethylene glycol (DEG) by weight. Solvesso 200 (C10-13 aromatic hydrocarbon solvent) was added dropwise under stirring until the solution became hazy. Weight of Solvesso added was recorded."}, "[10]": {"test": "Tebuconazole 600 SC formulation viscosity (Table 8)", "conditions": "dendrimer 0.7%", "procedure": "as §1"}, "[11]": {"test": "Tebuconazole 600 SC hard water testing: suspensibility, column thinning, sedimentation", "conditions": "2 ml Tebuconazole 600 SC, dendrimer 0.7%, in 98 ml 342 ppm hard water, 30° C., 24 hours", "procedure": "as §1\n98 ml of 342 ppm hard water (prepared as per CIPAC method MT18) was heated to 30° C. before adding 2 ml. of Tebuconazole 600 SC formulation. Temperature was maintained at 30° C. for 24 hours and formulation characteristics were studied for suspension stability, wetting, column thinning/separation and sedimentation."}, "[12]": {"conditions": "2,4-D Amine 625 g/l, dendrimer 2%"}, "[13]": {"conditions": "2,4-D Amine 625 g/l, dendrimer 5%"}, "[14]": {"conditions": "2,4-D Amine 625 g/l, dendrimer 10%"}}, "note": "Entries after “also recorded” stand apart in the source; their conditions may differ.", "data": [{"smiles": "CCC(COCC(O)CN(CCO)CCO)(COCC(O)CN(CCO)CCO)COCC(O)CN(CCO)CCO", "note": "(stereo not shown) [Compound 1, 9-((3-(bis(2-hydroxyethyl)amino)-2-hydroxypropoxy)methyl)-9-ethyl-3,15-bis(2-hydroxyethyl)-7,11-dioxa-3,15-diazaheptadecane-1,5,13,17-tetraol, reference compound]", "values": [{"measurement": "Wetting", "setting": "[1]", "result": 33.3, "unit": "s"}, {"measurement": "Appearance at Addition", "setting": "[2]; dendrimer 1.4% (w/w), 0.6% DEG", "result": "Clear"}, {"measurement": "Appearance/Sedimentation After 24 Hrs.", "setting": "[2]; dendrimer 1.4% (w/w), 0.6% DEG", "result": "Hazy with sediment"}, {"measurement": "Appearance at Addition", "setting": "[2]; dendrimer 2% (w/w)", "result": "Clear"}, {"measurement": "Appearance/Sedimentation After 24 Hrs.", "setting": "[2]; dendrimer 2% (w/w)", "result": "Hazy with sediment"}, {"measurement": "Appearance at Addition", "setting": "[2]; dendrimer 3.5% (w/w), 1.5% DEG", "result": "Clear"}, {"measurement": "Appearance/Sedimentation After 24 Hrs.", "setting": "[2]; dendrimer 3.5% (w/w), 1.5% DEG", "result": "Hazy with sediment"}, {"measurement": "Appearance at Addition", "setting": "[2]; dendrimer 5% (w/w)", "result": "Clear"}, {"measurement": "Appearance/Sedimentation After 24 Hrs.", "setting": "[2]; dendrimer 5% (w/w)", "result": "Hazy with sediment"}, {"measurement": "Appearance at Addition", "setting": "[2]; dendrimer 7% (w/w), 3% DEG", "result": "Clear"}, {"measurement": "Appearance/Sedimentation After 24 Hrs.", "setting": "[2]; dendrimer 7% (w/w), 3% DEG", "result": "Hazy with sediment"}, {"measurement": "Appearance at Addition", "setting": "[2]; dendrimer 10% (w/w)", "result": "Clear"}, {"measurement": "Appearance/Sedimentation After 24 Hrs.", "setting": "[2]; dendrimer 10% (w/w)", "result": "Hazy with sediment"}, {"measurement": "Appearance of 2,4-D solutions in hard water", "setting": "[2]", "result": "hazy solutions with sediment"}, {"measurement": "Observation: consistency", "setting": "[3]", "result": "Pseudoplastic liquid,"}, {"measurement": "Observation: sediment at 0 C.", "setting": "[3]; 0 C.", "result": "no sediment at 0 C."}, {"measurement": "Viscosity (cP) 0 C.", "setting": "[3]; 0 C.", "result": 2844, "unit": "cP"}, {"measurement": "Viscosity (cP) RT", "setting": "[3]; RT", "result": 2566, "unit": "cP"}, {"measurement": "Quantity MSO added to 10% LA-9 solution", "setting": "[4]; ratio LA-9 solution:dendrimer/DEG solution 60:40 (w/w), 28% dendrimer (w/w)", "result": 0.56, "unit": "g"}, {"measurement": "Quantity MSO added to 10% LA-9 solution", "setting": "[4]; ratio LA-9 solution:dendrimer/DEG solution 80:20 (w/w), 14% dendrimer (w/w)", "result": 0.54, "unit": "g"}, {"measurement": "Crystallisation After 7 Days at 0° C. With Seeding", "setting": "[5]; dendrimer 1.4%, Diethylene Glycol 0.6%", "result": "Crystallised"}, {"measurement": "Crystallisation After 7 Days at 0° C. With Seeding", "setting": "[5]; dendrimer 3.5%, Diethylene Glycol 1.5%", "result": "Crystallised"}, {"measurement": "Crystallisation After 7 Days at 0° C. With Seeding", "setting": "[5]; dendrimer 7%, Diethylene Glycol 3%", "result": "Crystallised"}, {"measurement": "Crystallisation at 0° C. with seeding", "setting": "[5]; 2,4-D Amine 625 g/l, all the dosages of dendrimer", "result": "crystallised"}, {"measurement": "Crystallisation After 14 Days at 0° C.", "setting": "[5]; 2,4-D Amine 625 g/l, dendrimer 1.4%, Diethylene Glycol 0.6%", "result": "Crystallised"}, {"measurement": "Crystallisation After 14 Days at 0° C.", "setting": "[5]; [12]", "result": "Crystallised"}, {"measurement": "Crystallisation After 14 Days at 0° C.", "setting": "[5]; 2,4-D Amine 625 g/l, dendrimer 3.5%, Diethylene Glycol 1.5%", "result": "Crystallised"}, {"measurement": "Crystallisation After 14 Days at 0° C.", "setting": "[5]; [13]", "result": "Crystallised"}, {"measurement": "Crystallisation After 14 Days at 0° C.", "setting": "[5]; 2,4-D Amine 625 g/l, dendrimer 7%, Diethylene Glycol 3%", "result": "Crystallised"}, {"measurement": "Crystallisation After 14 Days at 0° C.", "setting": "[5]; [14]", "result": "Crystallised"}, {"measurement": "Crystallisation After 7 Days at 0° C.", "setting": "[5]; [12]", "result": "resulted in crystallisation; also recorded: Crystallised"}, {"measurement": "Crystallisation After 7 Days at 0° C.", "setting": "[5]; [13]", "result": "resulted in crystallisation; also recorded: Crystallised"}, {"measurement": "Crystallisation After 7 Days at 0° C.", "setting": "[5]; [14]", "result": "No"}, {"measurement": "Cloud point (temperature at which solution turned hazy)", "setting": "[6]", "result": 65, "unit": "°C"}, {"measurement": "Dynamic viscosity", "setting": "[7]", "result": 1.8, "unit": "cps"}, {"measurement": "Quantity LA-3 added to LA-9 solution", "setting": "[8]; ratio 5% LA-9 solution:dendrimer/DEG solution 70:30 (w/w), 21% dendrimer (w/w)", "result": 1.96, "unit": "g"}, {"measurement": "Quantity LA-3 added to LA-9 solution", "setting": "[8]; ratio 5% LA-9 solution:dendrimer/DEG solution 80:20 (w/w), 14% dendrimer (w/w)", "result": 2.00, "unit": "g"}, {"measurement": "Quantity LA-3 added to LA-9 solution", "setting": "[8]; ratio 5% LA-9 solution:dendrimer/DEG solution 90:10 (w/w), 7% dendrimer (w/w)", "result": 1.83, "unit": "g"}, {"measurement": "Quantity Solvesso 200 added", "setting": "[9]", "result": 1.31, "unit": "g"}, {"measurement": "Viscosity 0 C.", "setting": "[10]; 0 C.", "result": 786}, {"measurement": "Viscosity 54 C.", "setting": "[10]; 54 C.", "result": 743}, {"measurement": "Viscosity RT", "setting": "[10]; RT", "result": 720, "unit": "cP"}, {"measurement": "Suspensibility: Sediment", "setting": "[11]", "result": 0.5, "unit": "mL⁻¹"}, {"measurement": "Suspensibility: nature of sediment", "setting": "[11]", "result": "Compact"}, {"measurement": "Suspensibility: Column Thinning", "setting": "[11]; top thinning", "result": 10, "unit": "ml. Top"}]}, {"smiles": "CCC(COCC(O)CN(CCOC)CCOC)(COCC(O)CN(CCOC)CCOC)COCC(O)CN(CCOC)CCOC", "note": "(stereo not shown) [Compound 8, 11-((3-(bis(2-methoxyethyl)amino)-2-hydroxypropoxy)methyl)-11-ethyl-5,17-bis(2-methoxyethyl)-2,9,13,20-tetraoxa-5,17-diazahenicosane-7,15-diol]", "values": [{"measurement": "Appearance at Addition", "setting": "[2]; dendrimer 2% (w/w)", "result": "Clear"}, {"measurement": "Appearance/Sedimentation After 24 Hrs.", "setting": "[2]; dendrimer 2% (w/w)", "result": "Hazy with sediment"}, {"measurement": "Appearance at Addition", "setting": "[2]; dendrimer 5% (w/w)", "result": "Clear"}, {"measurement": "Appearance/Sedimentation After 24 Hrs.", "setting": "[2]; dendrimer 5% (w/w)", "result": "Hazy with sediment"}, {"measurement": "Appearance at Addition", "setting": "[2]; dendrimer 10% (w/w)", "result": "Clear"}, {"measurement": "Appearance/Sedimentation After 24 Hrs.", "setting": "[2]; dendrimer 10% (w/w)", "result": "Hazy with sediment"}, {"measurement": "Appearance of 2,4-D solutions in hard water", "setting": "[2]", "result": "hazy solutions with sediment"}]}]}
